Values of other authors, collected in patent publication US20120189694A1, “CO-PRECIPITATE COMPRISING A PHOSPHODIESTERASE-5 INHIBITOR (PDE-5-INHIBITOR) AND A […] COMPATIBLE CARRIER, PRODUCTION AND USE THEREOF” (ratiopharm GmbH, priority 2009, published 2012).

Assays:
[1] = according to WO 01/08687
[2] = in vivo

solubility in water [1]: about 2 μg/ml
Compound: CN1CC(=O)N2[C@H](c3ccc4c(c3)OCO4)c3[nH]c4ccccc4c3C[C@@H]2C1=O [tadalafil, (6R,12aR)-6-(1,3-benzodioxol-5-yl)-2-methyl-1,2,3,4,6,7,12,12a-octahydropyrazino[2′,1′:6,1]pyrido[3,4-b]indole-1,4-dione]
time the action lasts [2]: up to 36 hours
